Experimental data as given in US9345677B2, “Compositions, methods and kits relating to HER-2 cleavage” (Incyte Corporation, priority 2003, dated 2016).

Assays:
circulating Her-2 ECD = assay: Plasma Her-2 ECD ELISA in BT-474-SC1 xenograft mice; assay type: in vivo
Method: For the BT-474-SC1 tumor model (see Results below), slow-release estrogen pellets (Innovative Research of America) were inserted subcutaneously (s.c.) into the flank of each mouse 24 hours prior to tumor cell inoculation. Balb/C nude and SCID-bg mice were obtained from Charles River Laboratories. Cells were harvested from their tissue culture plates, counted, centrifuged, and resuspended in serum free growth media and BD Matrigel™ at a 1:1 ratio immediately prior to implantation. In either one or two locations, 1−2×10^7 viable BT-474-SC1 cells were injected s.c. into the upper flank of each mouse. For all models, tumors were measured on a weekly basis and their volumes calculated using the formula [volume=(length×width^2)÷2]. Once the mean tumor volume of the required number of mice reached the desired size (usually >150 mm^3), they were randomized into treatment groups usually containing between 6 and 12 mice. […] Tumor size and body weights (a measure of animal health) were monitored weekly. […]
To measure levels of circulating Her-2 ECD in mice, plasmas were isolated from the blood samples described above and analyzed shortly after harvesting or stored frozen at −80° C. until analysis. To assess Her-2 ECD levels, plasma samples were diluted 1:5 and analyzed using a commercially available Her-2 ELISA kit per manufacturer's instructions (Oncogene Research, catalog #QIA10). […]

[1] = tested on: BT-474-SC1 tumor xenografts; assay: Tumor volume in BT-474-SC1 xenograft model; assay type: in vivo, mice
Method: For the BT-474-SC1 tumor model (see Results below), slow-release estrogen pellets (Innovative Research of America) were inserted subcutaneously (s.c.) into the flank of each mouse 24 hours prior to tumor cell inoculation. Balb/C nude and SCID-bg mice were obtained from Charles River Laboratories. Cells were harvested from their tissue culture plates, counted, centrifuged, and resuspended in serum free growth media and BD Matrigel™ at a 1:1 ratio immediately prior to implantation. In either one or two locations, 1−2×10^7 viable BT-474-SC1 cells were injected s.c. into the upper flank of each mouse. For all models, tumors were measured on a weekly basis and their volumes calculated using the formula [volume=(length×width^2)÷2]. Once the mean tumor volume of the required number of mice reached the desired size (usually >150 mm^3), they were randomized into treatment groups usually containing between 6 and 12 mice. Animals were then treated with compound or vehicle (10% DMAC, 30% propylene glycol) by mini-osmotic pump (Alzet, Cupertino, Calif.) implanted i.p. or s.c. for 7 to 28 days to achieve the desired compound exposure—controlled by altering the pump flow rate and/or the concentration of compound inside the pumps. Tumor size and body weights (a measure of animal health) were monitored weekly. Blood samples were also drawn (retro-orbital) while the osmotic pumps were functional and plasma was separated by centrifugation and stored at −80° C. for later pharmacokinetic and/or ELISA analysis, to determine the levels of circulating Her-2 ECD (described above). Note that in experiments designed to evaluate the effects of compound treatment on levels circulating Her-2 ECD, blood samples were drawn on the day osmostic pumps were implanted (day 0) and then again six days later (day 6).

Her-2 sheddase = assay: Her-2 ECD ELISA of BT474 culture supernatants (Her-2 sheddase inhibition); assay type: cell-based, human
Method: (§1) BT474 cells were seeded in 100 μL of RPMI medium containing 10% FCS+10 μg/ml insulin in 96 well plates at 2×10^4 cells/well. The cells were incubated overnight at 37° C. The following morning, the media was removed and 100 μL of fresh media with or without compound was added back. The cells were incubated for about 72 hours at 37° C. After about 72 hours, the supernatants were removed. The samples were diluted 1:10 and analyzed using a commercially available Her-2 ELISA kit per manufacturer's instructions (Oncogene Research, catalog #QIA 10).
These inhibitors were added, at varying concentrations, to cultures of BT474 cells, a Her-2 overexpressing breast cancer cell line known to enzymatically process cell surface Her-2 (p185) and release the extracellular domain (ECD) into the culture supernatant, i.e., shedding of ECD. After 72 hours, cell culture supernatants were harvested and assayed for Her-2 ECD content using an ELISA assay.

[2] = tested on: Her-2 cleavage in BT-474 cells; assay: Western blot of Her-2 ECD (105 kDa) in culture supernatants; assay type: cell-based, human
[3] = tested on: Her-2 cleavage in SK-BR3 cells; assay: as above; assay type: cell-based, human; conditions: varying concentrations
[4] = tested on: Her-2 cleavage in a primary breast tumor cell line that over expresses Her-2; assay: Shed Her-2 ECD in primary breast tumor cell culture; assay type: cell-based, human; conditions: primary breast tumor cell line over expressing Her-2
Method: Tumor specimens were obtained by Oncotech (Tustin, Calif.) according to their IRB approved protocol using standard procedures known in the art. Cell cultures were maintained in tissue culture flasks. Cells intended for experimental treatment were harvested in log phase with EDTA and were plated at a density of 1×10^5 cells/well in 24-well polystyrene plates in 0.5 ml RPMI with 10% FCS. Experiments to determine the effects of MPIs on shed Her-2 receptor were performed as described below for BT-474 cells.
as §1

[5] = tested on: AKT and ERK phosphorylation in BT474 cells; assay: Western blot of phospho-ERK and phospho-AKT; assay type: cell-based, human
Method: In experiments to determine the effects of MPI treatment on cell signaling, BT474 cells were plated at 1×10^5 cells/mL in 2 mL of media (RPMI+10% FCS+10 μg/mL insulin) in 12-well plates. […] After 5 days, the cells were harvested, lysed in 200 μL ice-cold lysis buffer containing 10 mM Tris, pH 7.2, 150 mM NaCl, 1% Triton X-100, 1% deoxycholic acid, 0.1% SDS, 50 μg/mL leupeptin, 50 μg/mL aprotinin, 1 mM sodium vanadate, 50 mM sodium fluoride, 1 mM PMSF. After 10 minutes on ice, the samples were microfuged at 13,000 rpm for 10 minutes at 4° C. and the supernatants collected. For analysis, 15 μL of 2× Laemmli sample buffer (BioRad, cat#161-0737) was added to 15 μL of extract, samples boiled for 5 minutes and loaded onto 12-well 12% Tris-Glycine gels (Novex, cat# EC60052). Gels were run in 1× Tris-Glycine-SDS buffer (Gibco BRL) using Novex minigel apparatus for approximately 1.5 hours. Following electrophoresis, proteins were transferred onto PVDF membrane (NEN, cat#NEF1000) in 1× Tris-Glycine buffer (Biorad, cat#161-0734) containing 20% MeOH for 2-3 hours using BioRad miniblot transfer system. After transfer, membranes were blocked in PBS+5% milk+0.1% Tween-20 for 1 h at RT. […]
Phosphorylation of AKT and the MAP kinase ERK were monitored by western blot analysis using phospho-specific antibodies.

[6] = tested on: AKT and ERK phosphorylation in MCF7 cells; assay: Western blot of phospho-ERK and phospho-AKT; assay type: cell-based, human; conditions: Her-2 non-overexpressing MCF7 cells

COC(=O)N1CC2(CC2)C[C@H](C(=O)NO)[C@H]1C(=O)N1CCN(c2ccccc2)CC1 [Compound 2, methyl (6S,7S)-7-[(hydroxyamino)carbonyl]-6-[(4-phenylpiperazin-1-yl)carbonyl]-5-azaspiro[2.5]octane-5-carboxylate]
level of circulating ECD on day 6 compared to vehicle (circulating Her-2 ECD; BT-474-SC1 tumor bearing mice, osmotic pump, p<0.0001): significantly lower | magnitude of change in ECD (circulating Her-2 ECD; day 6): 56% | tumor size on day 6 compared to vehicle ([1]; BT474-SC1 xenograft, p=0.0001): significantly smaller | magnitude of change in tumor volume ([1]; day 6): 27% | partial remission (greater than a 25% reduction in tumor volume) ([1]; day 6): multiple tumors demonstrated a partial remission

O=C(NO)[C@H]1CC2(CC2)CN[C@@H]1C(=O)N1CC=C(c2ccccc2)CC1 [Compound 3, (6S,7S)-6-{[4-phenyl-3,6-dihydropyridin-1(2H)-yl]carbonyl}-N-hydroxy-5-azaspiro[2.5]octane-7-carboxamide]
tumor growth over a 28-day period ([1]; BT474-SC1 model, vehicle tumors tripled in size): complete suppression of tumor growth

COc1ccc(S(=O)(=O)N2Cc3ccccc3C[C@@H]2C(=O)NO)cc1 [Compound 4, (3R)-N-hydroxy-2-((4-methoxyphenyl)sulfonyl)-1,2,3,4-tetrahydroisoquinoline-3-carboxamide]
inhibition of Her-2 cleavage (ECD processing), ELISA (Her-2 sheddase; BT-474 cells, 72 hours): inhibition of Her-2 cleavage | inhibition of Her-2 cleavage, Western blot ([2]; MPI alone, varying concentrations): inhibition of Her-2 cleavage | blocking Her-2 cleavage, MPI in combination with Herceptin ([2]; combination with Herceptin): additive effect | inhibition of Her-2 cleavage, Western blot [3]: inhibition of Her-2 cleavage | inhibition of Her-2 cleavage [4]: inhibition of Her-2 cleavage | phosphorylation of both AKT and ERK ([5]; sheddase inhibitor in combination with 0.2 μg/ml Herceptin): detectable reduction in phosphorylation | AKT or ERK phosphorylation, single agent ([5]; sheddase inhibitor less than 5 μM alone or 0.2 μg/ml Herceptin alone): did not demonstrate a detectable effect | AKT and MAP kinase pathways [6]: not impacted

CC1(C)SCCN(S(=O)(=O)c2ccc(Oc3ccncc3)cc2)[C@H]1C(=O)NO [Compound 7, Prinomastat, reference compound]
IC50 (Her-2 sheddase): 20 to 100 nM
